# From patent publication US20260366053A1, “SYNTHESIS OF COTYLENIN AND ANALOGS THEREOF FOR THE DEVELOPMENT OF SELECTIVE MODULATORS OF 14-3-3 PROTEIN-PROTEIN INTERACTION” (priority 2022, published 2026)
# Entries after “also recorded” stand apart in the source; their conditions may differ.
# Legend:
# [1] = test system: 14-3-3 proteins and their clients; details: cited from earlier work
# [2] = test system: 14-3-3 PPI; details: cited from earlier work
# [3] = test system: 14-3-3sigma and the C-terminal of TASK-3; details: structural; listed as cotylenol; cited from earlier work
# [4] = test system: human myeloid leukemia cells; details: listed as cotylenol; cited from earlier work
# [5] = target: P450BM3 variant MERO1 L75A (Priestia megaterium, UniProt P14779, A185V/A291V/A83G/E253G/F206C/F88V/H237Q/L354V/L76A/P143S/R256S/S227R/T176I/V79A); details: role: substrate; cofactor Na2NADP 0.2 eq.; lysate, 22 °C, 16 h, pH 8.0
# [6] = target: P450BM3 variant MERO1 FT (MERO1 L181F V184T) (Priestia megaterium, UniProt P14779, A185T/A291V/A83G/E253G/F206C/F88V/H237Q/L182F/L354V/P143S/R256S/S227R/T176I/V79A); details: role: substrate; cofactor Na2NADP 0.2 eq.; lysate, 22 °C, 16 h, pH 8.0
# [7] = target: Wild-type Bsc9 (Alternaria brassicicola, UniProt D7UTD1); type: biochemical; details: for conversion: pH 8.5
# [8] = target: Bsc9 “VR” (Alternaria brassicicola, UniProt D7UTD1, DEL103-114/G116R/H115V); details: role: substrate
# [9] = test system: MoBsc9; type: biochemical, Magnaporthe oryzae; details: for conversion: role: substrate, cosubstrate α-ketoglutarate, 1 mg scale, clarified lysate, 15 °C, 10 h, pH 8.5
# [10] = target: BscD (Pseudocercospora fijiensis, UniProt M2ZB93); details: role: substrate; E. coli lysates
# Source text: The biocatalytic use of BscD and Bsc9 was investigated for the oxidation of 20.
# Sequence of P450BM3 variant MERO1 FT (MERO1 L181F V184T) (P14779 whole entry V79A/A83G/F88V/P143S/T176I/L182F/A185T/F206C/S227R/H237Q/E253G/R256S/A291V/L354V): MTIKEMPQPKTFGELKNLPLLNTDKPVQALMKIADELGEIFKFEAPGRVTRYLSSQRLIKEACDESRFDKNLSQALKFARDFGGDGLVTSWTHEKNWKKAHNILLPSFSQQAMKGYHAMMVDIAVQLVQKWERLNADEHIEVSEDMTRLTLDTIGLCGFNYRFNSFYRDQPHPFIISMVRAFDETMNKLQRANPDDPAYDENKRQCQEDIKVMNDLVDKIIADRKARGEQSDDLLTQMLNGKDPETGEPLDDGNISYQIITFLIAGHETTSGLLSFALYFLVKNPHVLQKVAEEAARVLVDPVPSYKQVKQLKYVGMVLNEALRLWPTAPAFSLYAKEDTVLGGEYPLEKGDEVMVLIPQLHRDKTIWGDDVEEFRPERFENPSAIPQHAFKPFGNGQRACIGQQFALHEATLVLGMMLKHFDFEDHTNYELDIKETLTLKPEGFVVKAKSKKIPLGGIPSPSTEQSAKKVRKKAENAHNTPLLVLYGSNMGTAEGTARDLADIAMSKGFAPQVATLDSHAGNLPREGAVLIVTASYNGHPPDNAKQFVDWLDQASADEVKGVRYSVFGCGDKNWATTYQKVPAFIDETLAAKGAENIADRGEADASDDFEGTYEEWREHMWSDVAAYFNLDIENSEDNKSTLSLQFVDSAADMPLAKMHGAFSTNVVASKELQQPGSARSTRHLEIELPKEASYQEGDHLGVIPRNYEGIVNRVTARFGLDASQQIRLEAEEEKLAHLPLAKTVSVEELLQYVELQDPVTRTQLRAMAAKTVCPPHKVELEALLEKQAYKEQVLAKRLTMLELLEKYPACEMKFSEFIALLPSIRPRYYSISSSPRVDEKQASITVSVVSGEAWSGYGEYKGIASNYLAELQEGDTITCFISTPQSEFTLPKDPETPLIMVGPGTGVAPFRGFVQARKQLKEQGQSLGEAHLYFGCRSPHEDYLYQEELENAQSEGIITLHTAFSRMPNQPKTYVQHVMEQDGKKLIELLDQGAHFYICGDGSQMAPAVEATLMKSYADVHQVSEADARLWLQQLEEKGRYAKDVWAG
# Sequence of P450BM3 variant MERO1 L75A (P14779 whole entry L76A/V79A/A83G/F88V/P143S/T176I/A185V/F206C/S227R/H237Q/E253G/R256S/A291V/L354V): as the sequence (P14779 whole entry V79A/A83G/F88V/P143S/T176I/L182F/A185T/F206C/S227R/H237Q/E253G/R256S/A291V/L354V) above, with L76A, F182L, T185V counted along it
compound,measurement,setting,value
C=CC(C)(C)OC[C@H]1O[C@H](O[C@@H]2C3=C([C@H](C)COC(C)=O)C[C@H](O)[C@]3(C)/C=C3/[C@@H](COC)CC[C@H]3[C@@H](C)[C@H]2O)[C@H](O)[C@@H](OC(C)=O)[C@@H]1O [Compound 2],molecular glue activity,[1],capable of acting as molecular glues
same,phytotoxicity,[2],phytotoxins that target the 14-3-3 PPI
COC[C@@]1(O)CC[C@@H]2/C1=C\[C@@]1(C)CCC(C(C)C)=C1[C@@H](O)[C@H](O)[C@@H]2C [Compound 3],ternary complex formation,[3],form a ternary complex with 14-3-3sigma and the C-terminal of TASK-3; also recorded: a crystal structure of cotylenol in complex with 14-3-3s and a synthetic C-terminal hexapeptide of TASK-3 has also been solved
same,cytotoxicity,[4],cytotoxic toward human myeloid leukemia cells; also recorded: moderate cytotoxicity on human myeloid leukemia cells
COC[C@@]1(O)CC[C@@H]2/C1=C\[C@@]1(C)CCC(C(C)C)=C1C[C@H](O)[C@@H]2C [Compound 4],regioselectivity of hydroxylation at C13,[5],without any observable regioisomers
COCC1=C2C[C@@]3(C)CCC(C(C)C)=C3CC(=O)[C@H](C)[C@@H]2CC1 [Compound 8],regioselectivity of oxidation,[6],primarily at C4
COCC1=C2C[C@@]3(C)CCC(C(C)C)=C3[C@@H](O)C(=O)[C@H](C)[C@@H]2CC1 [Compound 20],conversion (in words),[7],moderate conversion
same,conversion,[7],43%
same,reaction (in words),[8],no reaction
same,conversion,[9],100%
same,reaction (in words),[10],no reaction
COC[C@@]1(O)CC[C@@H]2/C1=C\[C@@]1(C)CCC(C(C)C)=C1[C@@H](O)C(=O)[C@@H]2C [Compound 21],improvement in assay yield of 21,"[9]; role: product, relative to Bsc9",ca. two-fold
CC(C)C1=C2[C@@H](O)C(=O)[C@H](C)[C@@H]3CCC(=O)/C3=C/[C@@]2(C)CC1 [Compound 22],conversion (in words),[7],no further conversion
COCC1=C2C[C@@]3(C)CCC(C(C)C)=C3C[C@H](O)[C@H](C)[C@@H]2CC1 [Compound 23],selectivity (percent ratio of the desired product:total products),[7],43%
same,conversion,[7],37%
same,conversion,[9],30%
